The target of test [1] is T1, Cbl-b (Homo sapiens, UniProt Q13191). Kind of test: Cbl-b inhibition assay (Cbl-b activity assay, FRET, Biological Example 1; 100 mM NaCl, 60 nM Src kinase). The following applies: upper bound stated in text lists; read-out: IC50 values in the Cbl-b inhibition assay of Biological Example 1. The format is biochemical. An outline of the steps: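 N-terminally biotinylated Avi-tagged Cbl-b was mixed with Src kinase, UbcH5B covalently conjugated to Bodipy-fluorescein ubiquitin, and streptavidin-terbium. Src phosphorylation lets Cbl-b bind UbcH5B-Ub, giving terbium-fluorescein FRET; inhibition is read as loss of FRET signal.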
T1 sequence (Q13191 36-427): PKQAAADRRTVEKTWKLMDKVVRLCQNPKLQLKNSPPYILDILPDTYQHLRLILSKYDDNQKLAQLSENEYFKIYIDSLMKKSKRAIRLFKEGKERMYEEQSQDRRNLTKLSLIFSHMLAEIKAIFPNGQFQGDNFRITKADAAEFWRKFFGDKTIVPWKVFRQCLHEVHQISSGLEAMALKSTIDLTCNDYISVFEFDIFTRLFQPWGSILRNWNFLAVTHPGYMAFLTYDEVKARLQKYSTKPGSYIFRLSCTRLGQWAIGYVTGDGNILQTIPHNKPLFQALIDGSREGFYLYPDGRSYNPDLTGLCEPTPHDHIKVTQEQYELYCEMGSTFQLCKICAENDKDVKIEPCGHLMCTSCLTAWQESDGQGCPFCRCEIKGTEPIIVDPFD

Test [2] relates to T-cell. Kind of test: IL-2 secretion from T-cells co-stimulated with anti-CD3 and anti-CD28 antibody (Biological Example 2). The class given is cell-based, human. The note with it: Homo sapiens, T-cell. The method in brief:
(§1)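 T-cells were stimulated with anti-CD3 antibody alone or with anti-CD28 antibody, in the presence or absence of Cbl-b inhibitor. IL-2 secretion or CD25 surface staining was measured, and values expressed as fold over the uninhibited baseline […].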

For test [3], the system named is T-cell. Kind of test: CD25 cell surface staining on T-cells co-stimulated with anti-CD3 and anti-CD28 antibody (Biological Example 2). The class given is cell-based, human. The following applies: Homo sapiens, T-cell. An outline of the steps: as §1
The target of test [4] is T1, Cbl-b. The test is described as follows: Cbl-b activity assay (Cbl-b inhibition assay), TR-FRET of Cbl-b interaction with UbcH5B-Ub. The note with it: assay buffer with 100 mM NaCl, 60 nM Src kinase; read-out: Cbl-b activity IC50. The format is biochemical. The method in brief:
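UbcH5B (C85K) conjugated to N-terminally Bodipy-Fluorescein-labeled ubiquitin served as the fluorescent partner. After compound preincubation, Src kinase (60 nM) with 1 mM ATP and 5 mM MgCl2 (final) was added for 1.5 h, followed by a further 1 h incubation. Some values were obtained with 50 mM NaCl and 30 nM Src.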

Test [5] concerns the target Cbl-b (residues 36-427) (Homo sapiens, UniProt Q13191). The test is described as follows: Cbl-b binding assay (SPR, Biacore T200). The following applies: 20° C., 1:1 binding model. An outline of the steps: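 Steps: capture protein on NeutrAvidin surface; inject compound dilutions (8 or 10 points from 100 or 50 μM) 50 s; allow 90-180 s dissociation; regenerate 20 s with 0.3 M NaCl. Runs at 20° C in HEPES pH 7.5/100 mM NaCl/2% DMSO; 1:1 fitting.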

Setting [6] is: fold change over baseline, 0.3 μM Cbl-b inhibitor, primary human total T-cells, read-out: IL-2 secretion Anti-CD3/Anti-CD28 stimulation.
Setting [7] is: fold change over baseline, 1 μM Cbl-b inhibitor, primary human total T-cells, read-out: IL-2 secretion Anti-CD3/Anti-CD28 stimulation.
The mark [8] stands for this setting: fold change over baseline, 4 μM Cbl-b inhibitor, primary human total T-cells, read-out: IL-2 secretion Anti-CD3/Anti-CD28 stimulation.
The mark [9] stands for this setting: fold change over baseline, 0.3 μM Cbl-b inhibitor, primary human total T-cells, read-out: CD25 staining Anti-CD3/Anti-CD28 stimulation.
The mark [10] stands for this setting: fold change over baseline, 1 μM Cbl-b inhibitor, primary human total T-cells, read-out: CD25 staining Anti-CD3/Anti-CD28 stimulation.
Setting [11] is: fold change over baseline, 4 μM Cbl-b inhibitor, primary human total T-cells, read-out: CD25 staining Anti-CD3/Anti-CD28 stimulation.
Setting [12] is: 0.3 μM compound, primary human total T-cells, baseline = anti-CD3/anti-CD28 stimulated cells without inhibitor, read-out: IL-2 secretion, Anti-CD3/Anti-CD28 stimulation, fold change over baseline.
The mark [13] stands for this setting: 1 μM compound, primary human total T-cells, baseline = anti-CD3/anti-CD28 stimulated cells without inhibitor, read-out: IL-2 secretion, Anti-CD3/Anti-CD28 stimulation, fold change over baseline.
The mark [14] stands for this setting: 0.3 μM compound, primary human total T-cells, baseline = anti-CD3/anti-CD28 stimulated cells without inhibitor, read-out: CD25 staining, Anti-CD3/Anti-CD28 stimulation, fold change over baseline.
Setting [15] is: 1 μM compound, primary human total T-cells, baseline = anti-CD3/anti-CD28 stimulated cells without inhibitor, read-out: CD25 staining, Anti-CD3/Anti-CD28 stimulation, fold change over baseline.

Sequence of Cbl-b (residues 36-427) (Q13191 36-427): as above

As to `C[C@H](Cc1nncn1C)c1cccc(NC(=O)c2cc(O[C@@H]3CC[C@@H](O)C3)ccn2)c1` (relative stereo) [Compound 205, trans-4-(3-hydroxycyclopentyloxy)-N-(3-((R)-1-(4-methyl-4H-1,2,4-triazol-3-yl)propan-2-yl)phenyl)picolinamide], the concentration for half-maximal inhibition (IC50) in test [1] is not above 0.1 µM; in test [4] it was less than 0.1 µM. Also, the fold induction at 0.3 µM in test [2] (setting [6]) lay in the range of 2.51 to 5; in test [3] (setting [9]) it was 1.01 to 1.3. The fold induction at 1 µM in test [2] (setting [7]) was 2.51 to 5; in test [3] (setting [10]), 1.01 to 1.3. Further, the fold induction at 4 µM in test [2] (setting [8]) is 5 to 7.5; in test [3] (setting [11]), 1.31 to 1.5. The molecule also showed a Kd in test [5] of 0.1 to 0.3 µM.

Take `Cc1ccc(C(=O)Nc2cccc([C@H](C)Sc3nncn3C)c2)nc1C1CC1` [Compound 54, (S)-6-cyclopropyl-5-methyl-N-(3-(1-((4-methyl-4H-1,2,4-triazol-3-yl)thio)ethyl)phenyl)picolinamide]: the figures for the IC50 in test [1] and in test [4] were not above 0.1 µM and less than 0.1 µM, respectively. Moreover, the fold induction at 0.3 µM in test [2] (setting [6]) lay within 1.01 to 2.5; in test [3] (setting [9]) it was 1.01 to 1.3. In addition, the fold induction at 1 µM in test [2] (setting [7]) is 2.51 to 5; in test [3] (setting [10]) it was 1.01 to 1.3. In addition, the figures for the fold induction at 4 µM in test [2] (setting [8]) and in test [3] (setting [11]) were more than 7.5 and 1.01 to 1.3, respectively. Further, the Kd in test [5] is 0.1 to 0.3 µM.

As to `Cc1cc(C(=O)Nc2cccc([C@H](C)Sc3nncn3C)c2)nc(C(F)(F)F)c1` [Compound 65, (S)-4-methyl-N-(3-(1-((4-methyl-4H-1,2,4-triazol-3-yl)thio)ethyl)phenyl)-6-(trifluoromethyl)picolinamide], the IC50 was not above 0.1 µM in test [1] and less than 0.1 µM in test [4]. Also, the fold induction at 0.3 µM lay in the range of 1.01 to 2.5 in test [2] (setting [6]) and 1.01 to 1.3 in test [3] (setting [9]). In addition, the results for the fold induction at 1 µM in test [2] (setting [7]) and in test [3] (setting [10]) were 1.01 to 2.5 and 1.01 to 1.3, respectively. Also, the fold induction at 4 µM was 2.51 to 5 in test [2] (setting [8]) and 1.01 to 1.3 in test [3] (setting [11]). The dissociation constant (Kd) in test [5] was in the range of 0.1 to 0.3 µM.

For the molecule `Cn1cnnc1C(F)(F)[C@](C)(F)c1cccc(N2Cc3c(cc(CN4CC[C@@H](C#N)C4)cc3C(F)(F)F)C2=O)c1` [Compound 455, (R)-1-((3-oxo-2-(3-((R)-1,1,2-trifluoro-1-(4-methyl-4H-1,2,4-triazol-3-yl)propan-2-yl)phenyl)-7-(trifluoromethyl)isoindolin-5-yl)methyl)pyrrolidine-3-carbonitrile], the half-maximal inhibitory concentration (IC50) is not above 0.1 µM in test [1] and less than 0.1 µM in test [4]. Besides, the figures for the fold induction at 0.3 µM in test [2] (setting [12]) and in test [3] (setting [14]) were 5 to 7.5 and 1.01 to 1.3, respectively. The fold induction at 1 µM in test [2] (setting [13]) was more than 7.5; in test [3] (setting [15]), 1.31 to 1.5. The fold induction at 4 µM is more than 7.5 in test [2] (4 μM compound, primary human total T-cells, baseline = anti-CD3/anti-CD28 stimulated cells without inhibitor, read-out: IL-2 secretion, Anti-CD3/Anti-CD28 stimulation, fold change over baseline) and 1.31 to 1.5 in test [3] (4 μM compound, primary human total T-cells, baseline = anti-CD3/anti-CD28 stimulated cells without inhibitor, read-out: CD25 staining, Anti-CD3/Anti-CD28 stimulation, fold change over baseline).

Turning to `Cn1cnnc1CC1(c2cccc(N3Cc4c(cc(CN5CC6(CC6)C5)cc4C(F)(F)F)C3=O)c2)COC1` [Compound 487, 6-{5-azaspiro[2.3]hexan-5-ylmethyl}-2-(3-{3-[(4-methyl-1,2,4-triazol-3-yl)methyl]oxetan-3-yl}phenyl)-4-(trifluoromethyl)-3H-isoindol-1-one], the IC50 is not above 0.1 µM in test [1] and less than 0.1 µM in test [4]. Also, the fold induction at 0.3 µM in test [2] (setting [12]) was more than 7.5; in test [3] (setting [14]), 1.31 to 1.5. Also, the fold induction at 1 µM is more than 7.5 in test [2] (setting [13]) and 1.31 to 1.5 in test [3] (setting [15]).

Regarding `Cn1cnnc1CC1(c2cccc(NC(=O)c3cc(CN4CCC5(CC5)C4)cc(C4CC4)n3)c2)COC1` [Compound 519, 4-((5-azaspiro[2.4]heptan-5-yl)methyl)-6-cyclopropyl-N-(3-(3-((4-methyl-4H-1,2,4-triazol-3-yl)methyl)oxetan-3-yl)phenyl)picolinamide], the IC50 was not above 0.1 µM in test [1] and less than 0.1 µM in test [4]. The values for the fold induction at 0.3 µM in test [2] (setting [12]) and in test [3] (setting [14]) were more than 7.5 and 1.31 to 1.5, respectively. For the same molecule, the fold induction at 1 µM was more than 7.5 in test [2] (setting [13]) and 1.31 to 1.5 in test [3] (setting [15]).

Consider `Cn1cnnc1CC1(c2cccc(N3Cc4c(cc(CN5CCC6(CC6)C5)cc4C(F)(F)F)C3=O)c2)COC1` [Compound 520, 6-((5-azaspiro[2.4]heptan-5-yl)methyl)-2-(3-(3-((4-methyl-4H-1,2,4-triazol-3-yl)methyl)oxetan-3-yl)phenyl)-4-(trifluoromethyl)isoindolin-1-one], for which the IC50 in test [1] is not above 0.1 µM; in test [4], less than 0.1 µM. In addition, the fold induction at 0.3 µM in test [2] (setting [12]) is more than 7.5; in test [3] (setting [14]) it was 1.31 to 1.5. In addition, the fold induction at 1 µM in test [2] (setting [13]) is more than 7.5; in test [3] (setting [15]), 1.31 to 1.5.

With `C[C@@H](c1cc2c(c(C(F)(F)F)c1)CN(c1cccc(C3(Cc4nncn4C)COC3)c1)C2=O)N1C[C@H]2C[C@H]2C1` [Compound 541a, 6-((1S)-1-(3-azabicyclo[3.1.0]hexan-3-yl)ethyl)-2-(3-(3-((4-methyl-4H-1,2,4-triazol-3-yl)methyl)oxetan-3-yl)phenyl)-4-(trifluoromethyl)isoindolin-1-one], the 50% inhibitory concentration (IC50) in test [1] is not above 0.1 µM; in test [4], less than 0.1 µM. Moreover, the values for the fold induction at 0.3 µM in test [2] (setting [12]) and in test [3] (setting [14]) were more than 7.5 and 1.31 to 1.5, respectively. Moreover, the values for the fold induction at 1 µM in test [2] (setting [13]) and in test [3] (setting [15]) were more than 7.5 and 1.31 to 1.5, respectively.

As to `C[C@H](c1cc2c(c(C(F)(F)F)c1)CN(c1cccc(C3(Cc4nncn4C)COC3)c1)C2=O)N1CCC(C)(F)CC1` [Example 553b, (R)-6-(1-(4-fluoro-4-methylpiperidin-1-yl)ethyl)-2-(3-(3-((4-methyl-4H-1,2,4-triazol-3-yl)methyl)oxetan-3-yl)phenyl)-4-(trifluoromethyl)isoindolin-1-one], the values for the half-inhibitory concentration (IC50) in test [1] and in test [4] were not above 0.1 µM and less than 0.1 µM, respectively. Besides, the fold induction at 0.3 µM in test [2] (setting [12]) is more than 7.5; in test [3] (setting [14]), more than 1.76. The fold induction at 1 µM is more than 7.5 in test [2] (setting [13]) and more than 1.76 in test [3] (setting [15]).

`C[C@@H]1CN(Cc2cc3c(c(C(F)(F)F)c2)CN(c2cccc(C4(Cc5nncn5C)COC4)c2)C3=O)CCO1` [Example 663b, (R)-2-(3-(3-((4-methyl-4H-1,2,4-triazol-3-yl)methyl)oxetan-3-yl)phenyl)-6-((2-methylmorpholino)methyl)-4-(trifluoromethyl)isoindolin-1-one]: the results for the half-inhibitory concentration (IC50) in test [1] and in test [4] were not above 0.1 µM and less than 0.1 µM, respectively. The fold induction at 0.3 µM was more than 7.5 in test [2] (0.3 μM Cbl-b inhibitor, fold change over baseline (anti-CD3/anti-CD28 stimulated T-cells without inhibitor), read-out: IL-2 secretion Anti-CD3/Anti-CD28 stimulation) and 1.31 to 1.5 in test [3] (0.3 μM Cbl-b inhibitor, fold change over baseline (anti-CD3/anti-CD28 stimulated T-cells without inhibitor), read-out: CD25 staining Anti-CD3/Anti-CD28 stimulation). Besides, the fold induction at 1 µM is more than 7.5 in test [2] (1 μM Cbl-b inhibitor, fold change over baseline (anti-CD3/anti-CD28 stimulated T-cells without inhibitor), read-out: IL-2 secretion Anti-CD3/Anti-CD28 stimulation) and 1.31 to 1.5 in test [3] (1 μM Cbl-b inhibitor, fold change over baseline (anti-CD3/anti-CD28 stimulated T-cells without inhibitor), read-out: CD25 staining Anti-CD3/Anti-CD28 stimulation).

(Values after patent US20220324835A1 (Nurix Therapeutics, Inc., priority 2018, published 2022).)
